Data on four molecules can be found in PubChem BioAssay (NCI).

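Values below derive from 48-hour exposures of cells grown in 96-well plates, with endpoints linearly interpolated between the two concentrations bracketing the appropriate inhibition level. GI50 marks 50% less growth. TGI is the concentration that stops growth completely.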

Among the test systems are HT29 colon; CCRF-CEM leukemia; U251 CNS; UACC-257 melanoma; MCF7 breast; M14 melanoma; SW-620 colon; HCT-116 colon; OVCAR-4 ovarian; MALME-3M melanoma; SNB-75 CNS.
Assay in all cases: NCI anticancer screen, dose series, 48 h

`O=c1c2cc(I)ccc2nc(-c2cccs2)n1Nc1ccccc1`: the TGI in the assay with HT29 colon, in the assay with CCRF-CEM leukemia, in the assay on U251 CNS, with UACC-257 melanoma, in the assay with MCF7 breast and with M14 melanoma was over 100 µM in each case. The TGI in the assay with SW-620 colon, in the assay with HCT-116 colon and in the assay with OVCAR-4 ovarian was over 100 µM in each case. For the same molecule, the GI50 in the assay with CCRF-CEM leukemia was 50.7 µM; in the assay on UACC-257 melanoma, 32.3 µM; in the assay on MCF7 breast, 1.99 µM.
For `Nc1ccc(N=Nc2ccc(/C=C/c3ccc(N=Nc4ccc(N)c5ccc(S(=O)(=O)O)cc45)cc3S(=O)(=O)O)c(S(=O)(=O)O)c2)c2cc(S(=O)(=O)O)ccc12`, the TGI in the assay with HT29 colon, in the assay on CCRF-CEM leukemia, in the assay on U251 CNS, with MALME-3M melanoma, with UACC-257 melanoma and in the assay with MCF7 breast was over 100 µM in each case. Further, the TGI in the assay on SW-620 colon, in the assay with SNB-75 CNS, in the assay on HCT-116 colon and with OVCAR-4 ovarian was over 100 µM each time.
For the molecule `CC1CN=C(NCc2ccccc2)S1` (centres undefined), the TGI with HT29 colon, in the assay on CCRF-CEM leukemia, in the assay with U251 CNS, in the assay with MALME-3M melanoma, with UACC-257 melanoma and with MCF7 breast was over 100 µM in each case. The TGI in the assay on M14 melanoma, with SNB-75 CNS and in the assay with HCT-116 colon was over 100 µM throughout.
Regarding `COc1cc(/C=C2\CCCC3=C2NC(N)=NC3c2cc(OC)c(OC)c(OC)c2)cc(OC)c1OC` (centres undefined), the GI50 in the assay on CCRF-CEM leukemia is 0.419 µM; in the assay with MALME-3M melanoma, 1.92 µM; in the assay on UACC-257 melanoma, 1.25 µM; in the assay with MCF7 breast, 1.49 µM; in the assay on M14 melanoma it was 0.633 µM; with SW-620 colon, 1.08 µM. In addition, the values for the GI50 with SNB-75 CNS, in the assay on HCT-116 colon and in the assay with OVCAR-4 ovarian were 8.02 µM, 0.551 µM and 1.7 µM, respectively. Moreover, the TGI in the assay with CCRF-CEM leukemia is 7.31 µM; with MALME-3M melanoma it was 5.47 µM; in the assay with UACC-257 melanoma, 4.35 µM; with MCF7 breast, over 100 µM; in the assay with M14 melanoma, 2.91 µM; with SW-620 colon, 3.51 µM. Moreover, the values for the TGI in the assay on SNB-75 CNS, in the assay on HCT-116 colon and with OVCAR-4 ovarian were over 100 µM, 1.97 µM and over 100 µM, respectively.
